{"source": "paper PMC5338256", "about": "“D-form KLKLLLLLKLK-NH2 peptide exerts higher antimicrobial properties than its L-form counterpart via an association with bacterial cell wall components” (Scientific Reports, 2017)", "key": {"[1]": {"system": "S. aureus", "experiment": "Assay for antimicrobial activity (10 min exposure, CFU)", "format": "cell-based, Staphylococcus aureus (NBRC100910)", "conditions": "for antimicrobial activity (CFU), D-form compared with L-form: 10 min at 37 °C", "method": "(§1) S. aureus (NBRC100910), E. coli W3110 (NBRC12713), E. hirae (NBRC3181), C. albicans (NBRC1385), and S. Typhimurium 14028s (ATCC14028)[2] were used in this study. S. aureus, E. coli, and S. Typhimurium were grown at 37 °C with aeration in Muller-Hinton II medium (BD Biosciences). E. hirae was grown at 37 °C in LB medium (Nacalai Tesque, Inc.) containing 0.5% glucose (w/v). C. albicans was grown at room temperature with aeration in YM medium (BD Biosciences). All experiments were conducted using bacterial cells and C. albicans in the logarithmic-phase of growth.\nBacteria and C. albicans were suspended in growth medium. Peptides suspended in dimethyl sulfoxide were serially diluted in 10 mM phosphate buffer (pH 6.0) containing 130 mM sodium chloride, 0.2% bovine serum albumin as described previously. In order to examine the effects of bovine serum albumin on the assay, 10 mM phosphate buffer (pH 6.0) containing 130 mM sodium chloride, was used for the dilution of peptides. Peptide solution (500 μl) was added to 500 μl of bacteria suspensions and then the mixture was incubated at 37 °C for 10 min. In order to examine the effects of culture medium components on the assay, bacteria suspension was prepared with 10 mM phosphate buffer (pH 6.0) containing 130 mM sodium chloride. Alternatively, 500 μl of peptide solution was added to 500 μl of C. albicans suspensions and the mixture was incubated at room temperature for 10 min. The inhibitory effects of the bacterial components were analyzed by incubating 450 μl of S. aureus suspension with 500 μl of peptide solution plus 50 μl of inhibitor samples at 37 °C for 10 min. Then, the peptide/bacteria suspensions were diluted and plated onto LB agar, LB agar containing 0.5% glucose, or YM agar. After cultivation of the plates, colony forming units (CFU) in the peptide/bacteria suspension were calculated based on the average of triplicate plates."}, "[2]": {"experiment": "Calcein leakage from liposomes", "format": "biochemical", "conditions": "10 min at room temperature, pH 6.0, triplicate assays", "method": "Liposomes were prepared as previously described with some modifications. S. aureus-mimetic liposomes[17][26] and mammalian-mimetic liposomes[27] were prepared by combining phospholipid mixtures (cardiolipin: L-α-phosphatidyl-DL-glycerol = 1:3 (mol/mol)) and 2-dioleoyl-sn-glycero-3-phosphocholine:1,2-dioleoyl-sn-glycero-3-phosphoethanolamine:Cholesterol = 4:2:3 (mol/mol/mol)), respectively. A 50 mM calcein solution was prepared by mixing 100 mg calcein with 3.1 ml of solution A (0.3 ml of 1 M Tris-HCl (pH 7.4), 0.9 ml of 5 M sodium hydroxide, and 13.8 ml of water). The liposomes were prepared by adding 1 ml of calcein solution to the dried lipid mixtures, followed by vortexing for 10 min at room temperature. The liposome solution (1 ml) was centrifuged at 3000 × g for 10 min, and the precipitate was resuspended in 1 ml of 20 mM Tris-HCl (pH 7.4) containing 150 mM sodium chloride. The centrifugation step was repeated two more times. Finally, the precipitate was suspended in 100 μl of 20 mM Tris-HCl (pH 7.4) containing 150 mM sodium chloride.\nLiposome suspensions were prepared by diluting of 1 μl of liposomes into 40 ml of 10 mM phosphate buffer (pH6.0) containing 130 mM sodium chloride. Peptides were serially diluted in 10 mM phosphate buffer (pH 6.0) containing 130 mM sodium chloride and 1% dimethyl sulfoxide. […]"}, "[3]": {"system": "S. Typhimurium", "experiment": "Assay for antimicrobial activity (10 min exposure, CFU)", "format": "cell-based, Salmonella enterica serovar Typhimurium 14028s", "conditions": "10 min at 37 °C, triplicate plates", "method": "as §1\nBacteria and C. albicans were suspended in growth medium. Peptides suspended in dimethyl sulfoxide were serially diluted in 10 mM phosphate buffer (pH 6.0) containing 130 mM sodium chloride, 0.2% bovine serum albumin as described previously. In order to examine the effects of bovine serum albumin on the assay, 10 mM phosphate buffer (pH 6.0) containing 130 mM sodium chloride, was used for the dilution of peptides. […] The inhibitory effects of the bacterial components were analyzed by incubating 450 μl of S. aureus suspension with 500 μl of peptide solution plus 50 μl of inhibitor samples at 37 °C for 10 min. […] After cultivation of the plates, colony forming units (CFU) in the peptide/bacteria suspension were calculated based on the average of triplicate plates."}}, "note": "Non-standard residues stand in square brackets, D forms with d. Residues, ends and D or L forms follow the SMILES beside them.", "data": [{"smiles": "CC(C)C[C@@H](NC(=O)[C@H](N)CCCCN)C(=O)N[C@H](CCCCN)C(=O)N[C@H](CC(C)C)C(=O)N[C@H](CC(C)C)C(=O)N[C@H](CC(C)C)C(=O)N[C@H](CC(C)C)C(=O)N[C@H](CC(C)C)C(=O)N[C@H](CCCCN)C(=O)N[C@H](CC(C)C)C(=O)N[C@H](CCCCN)C(N)=O", "note": "[D-form KLKLLLLLKLK-NH2] (H-[dK][dL][dK][dL][dL][dL][dL][dL][dK][dL][dK]-NH2; N-terminus assumed)", "values": [{"measurement": "antimicrobial activity relative to the standard assay condition", "setting": "[1]; 10 min, in the absence of culture medium and bovine serum albumin", "result": "lower"}, {"measurement": "antimicrobial activity (CFU), D-form compared with L-form", "setting": "[1]; in the absence of culture medium and/or bovine serum albumin", "result": "higher antimicrobial activity"}, {"measurement": "antimicrobial activity (CFU), D-form compared with L-form", "setting": "[1]; standard assay with culture medium and 0.2% BSA, triplicate plates", "result": "higher antimicrobial activity"}, {"measurement": "peptide concentration at which D-form and L-form displayed similar antimicrobial activity", "setting": "[1]; 10 min exposure", "result": 1.9, "unit": "µg/mL"}, {"measurement": "calcein release from liposomes", "setting": "[2]; S. aureus-mimetic liposomes (cardiolipin:phosphatidylglycerol 1:3)", "result": "released calcein"}, {"measurement": "calcein release from liposomes", "setting": "[2]; mammalian-mimetic liposomes (phosphatidylcholine:phosphatidylethanolamine:cholesterol 4:2:3)", "result": "neither D-form nor L-form KLKLLLLLKLK-NH2 was able to release calcein"}, {"measurement": "antimicrobial activity (CFU), D-form compared with L-form", "setting": "[3]", "result": "higher antimicrobial activity"}]}]}
